Results as given in patent publication US20230144619A1, “SALT OF ARYLAMINOPURINE DERIVATIVE, PREPARATION METHOD THEREFOR AND USE THEREOF” (CSPC Zhongqi Pharmaceutical Technology (Shijiazhuang) Co., …, priority 2020, published 2023).
Where a name gives a salt, the structure may show the parent alone.

Key:
Hygroscopicity test = type: physicochemical; conditions: 25±1° C., relative humidity 80%±2% (DVS, 80% RH)
Protocol: Detection instrument: XPE105DR
(1) A dry stoppered glass weighing bottle was taken, placed in a suitable constant-temperature desiccator at 25° C. 1° C. (with a saturated solution of ammonium chloride or ammonium sulfate in the lower part) or an artificial climate box (with the set temperature of 25° C.±1° C. and the relative humidity of 80%±2%) on the day before the test, and precisely weighed and recorded as the weight (m1).
(2) An appropriate amount of the test sample was taken and spread in the above-mentioned weighing bottle. The thickness of the test sample was generally about 1 mm, and the bottle was precisely weighed and recorded as the weight (m2).
(3) The stopper was removed to open the weighing bottle, and the opened weighing bottle and the stopper were placed under the above-mentioned constant temperature and humidity conditions for 24 hours.
(4) The opened weighing bottle was stoppered, precisely weighed, and recorded as the weight (m3).
Percentage increase in mass=(m3−m2)/(m2−m1)×100%
(5) The description of hygroscopicity characteristics and the definition for the weight gain due to hygroscopicity:
Deliquescence: Sufficient water was absorbed to form a liquid.
Very hygroscopic: the weight gain due to hygroscopicity was not less than 15%.
Hygroscopic: the weight gain due to hygroscopicity was less than 15% but not less than 2%.
Slightly hygroscopic: the weight gain due to hygroscopicity was less than 2% but not less than 0.2%.
Not or nearly not hygroscopic: the weight gain due to hygroscopicity was less than 0.2%.
Appropriate amounts of the salt samples obtained from Examples 1 and 3-17 were subjected to the hygroscopicity test at a temperature of 25±1° C. under a relative humidity of 80%±2%, and the results were as follows: […]

DSC and TGA tests = type: physicochemical; conditions: onset temperature
Protocol: 6. Differential Scanning Calorimetry-Thermogravimetric Analysis (DSC-TGA)
Detection instrument: NETZSCH STA 449F3
Temperature range: 20° C.-350° C.;
Heating rate: 10.0 (K/min);
7. Differential Scanning Calorimetry (DSC)
Detection instrument: NETZSCH DSC 214 Polyma
Temperature range: 20° C.-250° C.;
Heating rate: 5.0 (K/min);
8. Thermogravimetric Analysis (TGA)
Detection instrument: METTLER and SDT Q600
The salts obtained in Examples 1 and 3-17 and the compound represented by Formula 1 were subjected to the DSC and TGA tests in media, and the test results were shown in the following table: […]

EGFR(h) = EGFR(h) (Homo sapiens, UniProt P00533); experiment: Kinase inhibitory activity test (per WO2011/147066); type: biochemical
ALK = ALK (Homo sapiens, UniProt Q9UM73); experiment: as above; type: biochemical; conditions: result in words
Chain of ALK (Q9UM73 19-1620): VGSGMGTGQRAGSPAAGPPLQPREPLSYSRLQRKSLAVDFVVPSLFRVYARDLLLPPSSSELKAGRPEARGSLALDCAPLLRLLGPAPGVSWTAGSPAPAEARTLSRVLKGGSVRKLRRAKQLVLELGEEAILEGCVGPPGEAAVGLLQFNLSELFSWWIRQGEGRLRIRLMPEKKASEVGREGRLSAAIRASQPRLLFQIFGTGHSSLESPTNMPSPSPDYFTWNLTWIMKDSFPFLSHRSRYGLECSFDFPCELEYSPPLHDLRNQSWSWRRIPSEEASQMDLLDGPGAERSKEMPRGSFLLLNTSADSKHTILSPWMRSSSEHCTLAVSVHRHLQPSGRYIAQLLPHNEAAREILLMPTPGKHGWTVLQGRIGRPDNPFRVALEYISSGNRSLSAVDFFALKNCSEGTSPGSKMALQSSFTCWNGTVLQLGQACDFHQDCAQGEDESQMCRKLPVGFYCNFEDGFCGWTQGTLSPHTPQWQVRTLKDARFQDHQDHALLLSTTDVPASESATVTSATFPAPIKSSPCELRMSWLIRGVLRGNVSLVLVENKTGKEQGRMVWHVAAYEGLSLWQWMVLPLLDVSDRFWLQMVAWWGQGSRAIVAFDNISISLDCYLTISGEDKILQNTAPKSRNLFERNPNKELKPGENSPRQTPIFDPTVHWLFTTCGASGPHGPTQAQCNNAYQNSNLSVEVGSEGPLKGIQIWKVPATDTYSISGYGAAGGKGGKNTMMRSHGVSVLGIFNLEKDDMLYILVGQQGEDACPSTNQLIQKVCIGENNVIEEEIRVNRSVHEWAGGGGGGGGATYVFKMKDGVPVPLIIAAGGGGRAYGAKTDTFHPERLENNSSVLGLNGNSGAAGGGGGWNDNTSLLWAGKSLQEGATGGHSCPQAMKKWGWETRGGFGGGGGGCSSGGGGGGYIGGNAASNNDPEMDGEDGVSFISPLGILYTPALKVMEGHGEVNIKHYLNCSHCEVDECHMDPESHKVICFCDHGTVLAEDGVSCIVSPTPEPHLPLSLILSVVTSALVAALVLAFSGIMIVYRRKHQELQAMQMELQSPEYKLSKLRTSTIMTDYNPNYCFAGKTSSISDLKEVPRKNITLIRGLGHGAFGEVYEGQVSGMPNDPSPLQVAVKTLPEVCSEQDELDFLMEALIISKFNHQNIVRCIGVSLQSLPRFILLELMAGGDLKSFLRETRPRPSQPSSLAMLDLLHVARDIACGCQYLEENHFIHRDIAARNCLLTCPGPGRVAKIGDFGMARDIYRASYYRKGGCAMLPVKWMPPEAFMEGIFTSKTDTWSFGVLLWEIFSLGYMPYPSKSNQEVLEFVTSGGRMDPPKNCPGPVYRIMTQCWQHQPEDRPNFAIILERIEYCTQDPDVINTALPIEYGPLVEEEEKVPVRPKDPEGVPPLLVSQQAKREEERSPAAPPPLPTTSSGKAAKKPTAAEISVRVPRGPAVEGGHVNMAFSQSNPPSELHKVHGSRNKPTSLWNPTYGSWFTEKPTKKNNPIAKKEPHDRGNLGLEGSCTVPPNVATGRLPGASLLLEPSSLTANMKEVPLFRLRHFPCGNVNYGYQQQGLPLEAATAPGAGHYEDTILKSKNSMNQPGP
Protocol: (§1) The salt sample obtained from Example 1 was tested according to the kinase inhibitory activity test described in the biological assessment of the patent application WO2011/147066.

Abl(h) = Abl(h) (Homo sapiens, UniProt P00519); experiment: as above; type: biochemical
Chain of Abl(h) (P00519 whole entry): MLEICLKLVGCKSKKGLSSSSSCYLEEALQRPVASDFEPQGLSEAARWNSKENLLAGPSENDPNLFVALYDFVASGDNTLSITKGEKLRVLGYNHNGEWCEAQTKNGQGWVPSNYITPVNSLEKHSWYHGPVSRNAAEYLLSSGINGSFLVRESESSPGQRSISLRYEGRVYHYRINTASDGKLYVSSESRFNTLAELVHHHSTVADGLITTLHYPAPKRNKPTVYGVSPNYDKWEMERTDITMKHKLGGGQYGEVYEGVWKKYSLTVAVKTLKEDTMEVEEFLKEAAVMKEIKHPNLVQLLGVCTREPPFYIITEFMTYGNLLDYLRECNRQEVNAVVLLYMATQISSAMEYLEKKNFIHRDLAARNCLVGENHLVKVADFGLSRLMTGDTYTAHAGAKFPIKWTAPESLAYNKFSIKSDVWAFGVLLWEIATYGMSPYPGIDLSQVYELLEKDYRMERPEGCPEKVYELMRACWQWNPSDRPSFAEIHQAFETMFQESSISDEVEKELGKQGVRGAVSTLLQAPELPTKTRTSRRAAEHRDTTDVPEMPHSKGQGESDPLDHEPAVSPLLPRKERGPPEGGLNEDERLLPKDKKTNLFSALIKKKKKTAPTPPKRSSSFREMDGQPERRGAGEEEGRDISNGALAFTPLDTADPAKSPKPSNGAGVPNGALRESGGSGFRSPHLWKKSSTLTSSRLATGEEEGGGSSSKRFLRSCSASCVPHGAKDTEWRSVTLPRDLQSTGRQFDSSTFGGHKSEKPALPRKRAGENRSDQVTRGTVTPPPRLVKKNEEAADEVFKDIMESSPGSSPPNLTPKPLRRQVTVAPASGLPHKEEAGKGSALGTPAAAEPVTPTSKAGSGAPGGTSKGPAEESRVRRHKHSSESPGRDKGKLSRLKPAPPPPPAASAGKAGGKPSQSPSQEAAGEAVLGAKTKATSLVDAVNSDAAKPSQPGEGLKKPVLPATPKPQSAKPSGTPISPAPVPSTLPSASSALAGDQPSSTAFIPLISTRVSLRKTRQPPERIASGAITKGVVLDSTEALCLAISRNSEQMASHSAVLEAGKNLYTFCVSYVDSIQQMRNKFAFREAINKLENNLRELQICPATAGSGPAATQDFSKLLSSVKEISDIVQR
Protocol: as §1

BTK = BTK (Homo sapiens, UniProt Q06187); experiment: as above; type: biochemical; conditions: result in words
Protocol: as §1

FGFRl(h) = FGFRl(h) (Homo sapiens, UniProt P11362); experiment: as above; type: biochemical
Chain of FGFRl(h) (P11362 22-822): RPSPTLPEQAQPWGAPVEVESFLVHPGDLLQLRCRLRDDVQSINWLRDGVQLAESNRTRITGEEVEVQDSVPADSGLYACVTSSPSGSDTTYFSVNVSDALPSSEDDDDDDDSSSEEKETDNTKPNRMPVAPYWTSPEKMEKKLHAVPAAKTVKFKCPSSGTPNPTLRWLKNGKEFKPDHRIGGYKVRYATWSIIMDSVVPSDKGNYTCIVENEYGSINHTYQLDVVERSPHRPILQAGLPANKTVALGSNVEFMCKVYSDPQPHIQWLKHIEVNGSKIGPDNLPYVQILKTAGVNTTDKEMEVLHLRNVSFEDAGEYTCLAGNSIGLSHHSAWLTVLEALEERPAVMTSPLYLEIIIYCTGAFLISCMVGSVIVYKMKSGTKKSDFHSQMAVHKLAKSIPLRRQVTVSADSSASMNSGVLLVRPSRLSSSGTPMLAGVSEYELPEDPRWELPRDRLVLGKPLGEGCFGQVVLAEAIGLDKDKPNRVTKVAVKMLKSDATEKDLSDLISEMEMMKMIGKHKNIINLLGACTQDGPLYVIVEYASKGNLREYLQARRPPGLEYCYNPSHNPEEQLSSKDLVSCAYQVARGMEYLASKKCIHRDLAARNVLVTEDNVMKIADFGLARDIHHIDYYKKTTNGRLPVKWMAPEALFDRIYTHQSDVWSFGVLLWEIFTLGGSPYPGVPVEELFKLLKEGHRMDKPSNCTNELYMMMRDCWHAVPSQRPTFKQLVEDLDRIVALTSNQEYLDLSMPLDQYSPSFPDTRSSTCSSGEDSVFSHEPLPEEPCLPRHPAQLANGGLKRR
Protocol: as §1

FLT3(h) = FLT3(h) (Homo sapiens, UniProt P36888); experiment: as above; type: biochemical
Chain of FLT3(h) (P36888 27-993): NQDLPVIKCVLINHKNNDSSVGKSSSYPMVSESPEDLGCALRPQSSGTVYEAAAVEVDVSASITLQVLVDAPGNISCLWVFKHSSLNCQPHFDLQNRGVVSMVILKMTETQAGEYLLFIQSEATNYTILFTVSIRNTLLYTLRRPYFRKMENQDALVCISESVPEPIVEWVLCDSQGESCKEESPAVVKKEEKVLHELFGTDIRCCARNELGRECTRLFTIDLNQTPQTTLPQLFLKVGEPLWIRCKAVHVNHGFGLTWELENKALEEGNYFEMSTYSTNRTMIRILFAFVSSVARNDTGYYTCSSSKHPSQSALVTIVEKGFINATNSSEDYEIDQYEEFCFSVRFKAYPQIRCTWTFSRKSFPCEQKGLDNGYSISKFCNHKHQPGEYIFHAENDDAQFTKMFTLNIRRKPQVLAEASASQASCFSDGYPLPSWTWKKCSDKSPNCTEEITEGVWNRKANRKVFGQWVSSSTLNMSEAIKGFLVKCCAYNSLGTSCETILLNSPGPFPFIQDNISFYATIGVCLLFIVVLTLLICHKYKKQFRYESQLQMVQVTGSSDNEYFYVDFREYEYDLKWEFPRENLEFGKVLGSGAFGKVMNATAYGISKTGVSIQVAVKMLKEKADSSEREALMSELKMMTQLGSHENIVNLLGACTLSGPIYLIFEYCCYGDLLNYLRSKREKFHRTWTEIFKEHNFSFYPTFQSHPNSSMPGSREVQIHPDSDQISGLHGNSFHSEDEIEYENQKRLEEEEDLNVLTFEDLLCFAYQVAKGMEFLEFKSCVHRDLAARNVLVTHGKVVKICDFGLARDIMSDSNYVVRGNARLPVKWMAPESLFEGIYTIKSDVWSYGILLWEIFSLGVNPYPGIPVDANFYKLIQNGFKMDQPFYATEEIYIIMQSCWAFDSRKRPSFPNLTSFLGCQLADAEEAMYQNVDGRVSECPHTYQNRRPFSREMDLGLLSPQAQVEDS
Protocol: as §1

FLT3-ITD(h) = FLT3-ITD(h) (Homo sapiens, UniProt P36888); experiment: as above; type: biochemical
Protocol: as §1

Fyn(h) = Fyn(h) (Homo sapiens, UniProt P06241); experiment: as above; type: biochemical
Protocol: as §1

Hck(h) = Hck(h) (Homo sapiens, UniProt P08631); experiment: as above; type: biochemical
Protocol: as §1

KDR(h) = KDR(h) (Homo sapiens, UniProt P35968); experiment: as above; type: biochemical
Protocol: as §1

Lck(h) = Lck(h) (Homo sapiens, UniProt P06239); experiment: as above; type: biochemical
Protocol: as §1

Lyn(h) = Lyn(h) (Homo sapiens, UniProt P07948); experiment: as above; type: biochemical
Chain of Lyn(h) (P07948 whole entry): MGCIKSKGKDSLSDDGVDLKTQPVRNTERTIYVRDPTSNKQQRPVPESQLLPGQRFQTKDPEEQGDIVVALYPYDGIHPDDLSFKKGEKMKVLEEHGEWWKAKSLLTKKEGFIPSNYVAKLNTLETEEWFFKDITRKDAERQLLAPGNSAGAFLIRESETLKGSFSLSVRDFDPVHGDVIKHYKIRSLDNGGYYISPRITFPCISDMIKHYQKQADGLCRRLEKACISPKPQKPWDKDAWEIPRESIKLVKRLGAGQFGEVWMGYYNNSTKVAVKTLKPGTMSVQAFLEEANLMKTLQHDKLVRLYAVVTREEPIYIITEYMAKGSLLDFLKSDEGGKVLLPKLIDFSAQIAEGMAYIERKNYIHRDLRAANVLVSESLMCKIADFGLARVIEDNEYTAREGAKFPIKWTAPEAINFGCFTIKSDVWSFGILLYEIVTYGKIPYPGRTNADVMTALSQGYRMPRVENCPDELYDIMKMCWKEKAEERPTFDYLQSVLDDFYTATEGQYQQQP
Protocol: as §1

MET = MET (Homo sapiens, UniProt P08581); experiment: as above; type: biochemical; conditions: result in words
Protocol: as §1

PDGFRα = PDGFRα (Homo sapiens, UniProt P16234); experiment: as above; type: biochemical; conditions: result in words
Protocol: as §1

Ret(h) = Ret(h) (Homo sapiens, UniProt P07949); experiment: as above; type: biochemical
Protocol: as §1

VEGFR2 = VEGFR2 (Homo sapiens, UniProt P35968); experiment: as above; type: biochemical; conditions: VEGFR2, result in words
Protocol: as §1

Yes = Yes (Homo sapiens, UniProt P07947); experiment: as above; type: biochemical
Protocol: as §1

c-KIT = c-KIT (Homo sapiens, UniProt P10721); experiment: as above; type: biochemical; conditions: result in words
Protocol: as §1

c-SRC(h) = c-SRC(h) (Homo sapiens, UniProt P12931); experiment: as above; type: biochemical
Protocol: as §1

[1] = test system: MV4-11 (FLT3-ITD mutation) subcutaneous tumor model; experiment: In-vivo anti-tumor test, MV4-11 subcutaneous tumor model; design: species or system nude mice; conditions: MV4-11 model, once daily oral administration for 21 days
Protocol: (§2) The salt sample obtained from Example 1 was tested (specifically for FLT3-ITD acute myeloid leukemia, non-small cell lung cancer with EGFR activating mutations, or Ph-positive chronic myeloid leukemia) according to the in-vivo anti-tumor test described in the biological assessment of the patent application WO2011/147066.

[2] = test system: human non-small cell lung cancer HCC827; experiment: In-vivo anti-tumor test, non-small cell lung cancer model; design: species or system nude mice; conditions: once daily oral administration for 30 days
Protocol: as §2

[3] = test system: K562 (BCR-Abl gene rearrangement) subcutaneous tumor model; experiment: In-vivo anti-tumor test, K562 subcutaneous tumor model; design: species or system nude mice; conditions: 70 mg/kg, once daily oral administration for 18 days
Protocol: as §2

SMILES: CC(C)n1c(Nc2cccnc2)nc2cnc(Nc3ccc(N4CCN(C)CC4)cc3)nc21 [Example 1, arylaminopurine derivative.trihydrochloride.pentahydrate]
- Hygroscopicity (Hygroscopicity test): Slightly hygroscopic (the weight gain due to hygroscopicity was less than 2% but not less than 0.2%.)
- Weight gain due to hygroscopicity (Hygroscopicity test): 0.7%
- TGA: starting to lose the acid (DSC and TGA tests): ~140 °C (see FIG. 19)
- TGA: starting to lose the water of crystallization (DSC and TGA tests): crystallization at about 40° C.;
- IC50 (EGFR(h)): 42 nM
- inhibition of kinase activity (ALK): could inhibit the activities
- IC50 (Abl(h)): 25 nM
- inhibition of kinase activity (BTK): could inhibit the activities
- IC50 (FGFRl(h)): 247 nM
- IC50 (FLT3(h)): 26 nM
- IC50 (FLT3-ITD(h)): 3 to 10 nM
- IC50 (Fyn(h)): 34 nM
- IC50 (Hck(h)): 93 nM
- IC50 (KDR(h)): 323 nM
- IC50 (Lck(h)): 37 nM
- IC50 (Lyn(h)): 7 nM
- inhibition of kinase activity (MET): could inhibit the activities
- inhibition of kinase activity (PDGFRα): could inhibit the activities
- IC50 (Ret(h)): 10 nM
- inhibition of kinase activity (VEGFR2): could inhibit the activities
- IC50 (Yes): 4 nM
- inhibition of kinase activity (c-KIT): could inhibit the activities
- IC50 (c-SRC(h)): 176 nM
- tumor growth ([1]; 5 mg/kg): completely inhibit the tumor growth
- tumor growth ([1]; 10 mg/kg): complete regression of the tumor
- tumor growth ([1]; 20 mg/kg): complete regression of the tumor
- growth of human non-small cell lung cancer HCC827 ([2]; 7.5, 15 and 30 mg/kg, dose dependence): dose-dependently inhibit the growth
- tumor size compared with the initial tumor ([2]; HCC827, 7.5 mg/kg): tumor shrinkage
- tumor size compared with the initial tumor ([2]; HCC827, 15 mg/kg): tumor shrinkage
- regression of the tumor ([2]; HCC827, 30 mg/kg): nearly complete regression of the tumor
- tumor size compared with the initial tumor ([2]; HCC827, 30 mg/kg): tumor shrinkage
- tumor growth [3]: effectively inhibit the tumor growth
- tumor inhibition rate [3]: 71.3%
